Source: ChEMBL document CHEMBL6182828, “Medicinal chemistry-based perspectives on thiophene and its derivatives: exploring structural insights to discover plausible druggable leads” (RSC Med Chem, 2025)
Converted amounts (≈) assume the structure as drawn.

Assays:
[1] = Half life in human at 15 mg/kg, po; type: ADME, organism-based; conditions: in vivo
Streptococcus pneumoniae [2] = test: Antimicrobial activity against Streptococcus pneumoniae assessed as diameter of zone of inhibition by agar diffusion method; type: functional
Bacillus subtilis [3] = test: Antimicrobial activity against Bacillus subtilis assessed as diameter of zone of inhibition by agar diffusion method; type: functional
Aspergillus niger = test: Antifungal activity against Aspergillus niger assessed as diameter of zone of inhibition at 100 ug/ml by cup-plate agar diffusion method; type: functional; conditions: read-out: IZ
Bacillus subtilis [4] = test: Antibacterial activity against Bacillus subtilis ATCC 6633 assessed as zone of inhibition; type: functional
Salmonella paratyphi = test: […] activity against Salmonella enterica subsp. enterica serovar Paratyphi A assessed as zone of inhibition at 100 ug/ml by cup-plate agar diffusion method; type: functional; conditions: read-out: IZ
Staphylococcus aureus [5] = test: Antibacterial activity against Staphylococcus aureus assessed as zone of inhibition at 100 ug/ml by cup-plate agar diffusion method; type: functional; conditions: read-out: IZ
[6] = Elimination half life in human at 0.8 mg/kg, sc; type: ADME, organism-based; conditions: in vivo, read-out: LambdaZ (converted)
Streptococcus pneumoniae [7] = test: Antimicrobial activity against Streptococcus pneumoniae assessed as reduction in cell growth by XTT assay; type: functional, organism-based
Staphylococcus aureus [8] = test: Antimicrobial activity against Staphylococcus aureus assessed as reduction in cell growth by XTT assay; type: functional, organism-based
MCF7 = test: Cytotoxicity against human MCF7 cells assessed as reduction in cell viability; type: functional, cell-based
[9] = biological target: Amine oxidase [flavin-containing] B (Homo sapiens, UniProt P27338); test: Inhibition of human recombinant MAO-B extracted from baculovirus infected in BTI-TN-5B1-4 insect cells incubated for 20 mins by Amplex Red reagent based fluorescence analysis; type: cell-based
Sequence of Amine oxidase [flavin-containing] B (P27338 whole entry): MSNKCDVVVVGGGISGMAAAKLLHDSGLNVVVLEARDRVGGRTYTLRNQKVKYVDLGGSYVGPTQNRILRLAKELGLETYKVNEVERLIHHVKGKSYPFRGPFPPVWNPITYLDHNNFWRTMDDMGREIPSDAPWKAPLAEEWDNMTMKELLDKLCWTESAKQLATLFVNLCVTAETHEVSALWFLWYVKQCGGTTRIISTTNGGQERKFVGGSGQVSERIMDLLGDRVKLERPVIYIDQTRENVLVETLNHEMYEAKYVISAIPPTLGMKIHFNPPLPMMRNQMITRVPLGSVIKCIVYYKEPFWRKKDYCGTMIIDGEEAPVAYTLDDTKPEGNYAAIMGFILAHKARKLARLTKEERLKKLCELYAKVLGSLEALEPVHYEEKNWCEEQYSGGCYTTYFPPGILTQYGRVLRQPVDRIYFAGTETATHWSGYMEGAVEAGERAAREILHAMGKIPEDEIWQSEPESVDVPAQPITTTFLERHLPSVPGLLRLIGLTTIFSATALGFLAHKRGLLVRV

Beta-secretase 1 = Beta-secretase 1 (Homo sapiens, UniProt P56817); test: Inhibition of human recombinant BACE1 expressed in HEK293 cells by FRET assay; type: cell-based
Sequence of Beta-secretase 1 (P56817 whole entry): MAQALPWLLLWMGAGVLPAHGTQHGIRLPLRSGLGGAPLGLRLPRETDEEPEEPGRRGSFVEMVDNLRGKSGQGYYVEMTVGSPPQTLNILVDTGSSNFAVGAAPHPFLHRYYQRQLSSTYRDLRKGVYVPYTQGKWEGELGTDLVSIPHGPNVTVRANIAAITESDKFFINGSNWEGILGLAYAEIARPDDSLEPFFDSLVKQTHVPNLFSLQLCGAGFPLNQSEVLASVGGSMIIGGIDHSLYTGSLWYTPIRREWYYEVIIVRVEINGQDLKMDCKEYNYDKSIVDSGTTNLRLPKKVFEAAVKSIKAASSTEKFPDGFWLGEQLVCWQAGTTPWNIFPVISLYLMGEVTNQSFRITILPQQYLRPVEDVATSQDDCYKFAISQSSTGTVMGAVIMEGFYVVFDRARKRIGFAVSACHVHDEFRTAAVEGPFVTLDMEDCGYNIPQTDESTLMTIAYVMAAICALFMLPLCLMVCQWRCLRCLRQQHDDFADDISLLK

OVCAR-8 = test: Cytotoxicity against human OVCAR-8 cells assessed as reduction in cell growth incubated for 24 hrs by MTT assay; type: functional, cell-based; conditions: OVCAR-8, 24 h
HL-60 = test: Cytotoxicity against human HL-60 cells assessed as reduction in cell growth incubated for 24 hrs by MTT assay; type: functional, cell-based; conditions: HL-60, 24 h
HCT-116 = test: Cytotoxicity against human HCT-116 cells assessed as reduction in cell growth incubated for 24 hrs by MTT assay; type: functional, cell-based; conditions: HCT-116, 24 h
SF-295 = test: Cytotoxicity against human SF-295 cells assessed as reduction in cell growth incubated for 24 hrs by MTT assay; type: functional, cell-based; conditions: SF-295, 24 h
SMMC-7721 = test: cells; conditions: Homo sapiens, SMMC-7721, 72 h
Description: Antiproliferative activity against human SMMC-7721 cells assessed as reduction in cell viability measured for 72 hrs by MTT assay

Escherichia coli = test: Antimicrobial activity against Escherichia coli assessed as diameter of zone of inhibition; type: functional
[10] = Half life of compound; type: physicochemical
[11] = Terminal half life in human; type: ADME; conditions: read-out: beta t1/2 (converted)
A549 = test: Growth inhibition of human A549 cells by SRB assay; type: functional
Acetylcholinesterase [12] = biological target: T1, Acetylcholinesterase (Homo sapiens, UniProt P22303); test: Inhibition of AChE (unknown origin) using acetylthiocholine iodide as substrate by Ellman's spectrophotometric analysis
T1 sequence (P22303 whole entry): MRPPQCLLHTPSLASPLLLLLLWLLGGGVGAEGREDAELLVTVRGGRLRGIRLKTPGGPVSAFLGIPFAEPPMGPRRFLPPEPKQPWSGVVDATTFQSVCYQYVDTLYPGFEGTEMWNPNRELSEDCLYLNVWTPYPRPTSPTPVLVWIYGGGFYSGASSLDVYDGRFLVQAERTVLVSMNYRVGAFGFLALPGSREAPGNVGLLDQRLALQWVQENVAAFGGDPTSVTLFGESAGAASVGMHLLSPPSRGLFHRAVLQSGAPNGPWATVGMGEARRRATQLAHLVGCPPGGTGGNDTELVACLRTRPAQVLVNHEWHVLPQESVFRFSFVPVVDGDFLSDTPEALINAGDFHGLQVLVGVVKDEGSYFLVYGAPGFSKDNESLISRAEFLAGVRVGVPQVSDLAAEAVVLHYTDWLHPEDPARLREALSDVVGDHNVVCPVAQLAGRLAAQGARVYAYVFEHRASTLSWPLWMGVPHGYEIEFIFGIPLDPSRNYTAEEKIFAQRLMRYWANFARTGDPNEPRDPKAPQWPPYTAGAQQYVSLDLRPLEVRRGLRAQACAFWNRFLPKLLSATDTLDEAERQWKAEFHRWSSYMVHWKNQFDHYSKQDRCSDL

HepG2 = test: Antiproliferative activity against human HepG2 cells assessed as reduction in cell growth measured for 96 hrs by Neutral red uptake assay; type: functional, cell-based; conditions: HepG2, 96 h
[13] = Terminal half life in human at 2.5 mg/kg, po; type: ADME, organism-based; conditions: in vivo, read-out: beta t1/2 (converted)
Acetylcholinesterase [14] = biological target: T1, Acetylcholinesterase; test: Inhibition of AChE (unknown origin)
Cholinesterase = Cholinesterase (Homo sapiens, UniProt P06276); test: Inhibition of BChE (unknown origin)
Sequence of Cholinesterase (P06276 whole entry): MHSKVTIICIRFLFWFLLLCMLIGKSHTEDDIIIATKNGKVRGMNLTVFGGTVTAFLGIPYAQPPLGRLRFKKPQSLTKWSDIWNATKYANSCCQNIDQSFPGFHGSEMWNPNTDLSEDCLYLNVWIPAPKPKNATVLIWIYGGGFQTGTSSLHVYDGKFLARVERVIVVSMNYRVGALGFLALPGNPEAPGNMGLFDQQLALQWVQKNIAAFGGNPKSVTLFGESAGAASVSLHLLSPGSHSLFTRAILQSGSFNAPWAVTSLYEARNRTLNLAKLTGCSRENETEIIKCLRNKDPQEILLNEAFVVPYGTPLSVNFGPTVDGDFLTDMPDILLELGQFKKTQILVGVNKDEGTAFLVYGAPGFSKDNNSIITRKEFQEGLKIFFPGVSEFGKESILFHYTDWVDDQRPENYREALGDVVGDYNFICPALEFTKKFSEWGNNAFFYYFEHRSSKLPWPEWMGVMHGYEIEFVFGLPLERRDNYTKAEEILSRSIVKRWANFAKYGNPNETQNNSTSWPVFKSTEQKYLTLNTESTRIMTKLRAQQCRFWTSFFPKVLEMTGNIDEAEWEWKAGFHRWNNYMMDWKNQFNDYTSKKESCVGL

[15] = Terminal half life in human plasma; type: ADME, cell-free; conditions: read-out: beta t1/2 (converted)
MIA PaCa-2 = test: Cytotoxicity against human MIA PaCa-2 cells; type: functional, cell-based
[16] = Inhibition of EGFR2 (unknown origin); parameters: species or system Homo sapiens
clinical = conditions: human
[17] = Half life in human at 0.7 mg/kg, po; conditions: in vivo
Rattus norvegicus [18] = test: Anti-inflammatory activity against carrageenan-induced paw edema in Wistar rat assessed as inhibition of paw edema at 20 mg/kg, po by H and E staining based analysis relative to control; type: functional; parameters: scale not given: the % may be the effect or the level left
Rattus norvegicus [19] = test: Anti-inflammatory activity against carrageenan-induced paw edema in Albino rat assessed as inhibition of paw edema at 50 mg/kg, po relative to control; type: functional; parameters: scale not given: the % may be the effect or the level left
[20] = Half life in po dosed human plasma; type: ADME, organism-based
[21] = Half life in human at 6 mg/kg; type: ADME, organism-based; conditions: in vivo
Penicillium chrysogenum = test: Antifungal activity against Penicillium chrysogenum assessed as diameter of zone of inhibition at 100 ug/ml by cup-plate agar diffusion method; type: functional; conditions: read-out: IZ

## Cc1cc2c(s1)Nc1ccccc1N=C2N1CCN(C)CC1 [OLANZAPINE]
[1]
  half-life: 21 h

## CCOC(=O)c1c(Nc2ccccc2)sc(C2=CN3NCC=C3N2)c1-c1ccccc1
Streptococcus pneumoniae [2]
  inhibition zone (IZ): 12.3 mm
Bacillus subtilis [3]
  inhibition zone (IZ): 12.7 mm

## Cc1cc2ccc(O)cc2n(NC(=O)c2sc3cc(F)ccc3c2N)c1=O
Aspergillus niger
  zone of inhibition at 100 µg/mL: 26 mm
Bacillus subtilis [4]
  inhibition zone (IZ): 25 mm
Salmonella paratyphi
  zone of inhibition at 100 µg/mL: 22 mm
Staphylococcus aureus [5]
  zone of inhibition at 100 µg/mL: 23 mm

## NC(N)=NCCC[C@@H](N)C(=O)N[C@@H](CCCN=C(N)N)C(=O)N1CCC[C@H]1C(=O)N1C[C@H](O)C[C@H]1C(=O)NCC(=O)N[C@@H](Cc1cccs1)C(=O)N[C@@H](CO)C(=O)N1Cc2ccccc2C[C@@H]1C(=O)N1[C@H](C(=O)N[C@@H](CCCN=C(N)N)C(=O)O)C[C@@H]2CCCC[C@@H]21 [ICATIBANT]
[6]
  half-life: 1.4 h

## CCOC(=O)c1c(Nc2ccccc2)sc(Cc2ccc(-n3cnnn3)cc2)c1N
Streptococcus pneumoniae [7]
  IC50: 9.83 µg/mL (≈ 23.4 µM)
Staphylococcus aureus [8]
  IC50: 7.62 µg/mL (≈ 18.1 µM)

## O=C1S/C(=C\c2cccc(Cl)c2Cl)C(=O)N1Cc1nnc(-c2cccs2)o1
MCF7
  IC50: 4.83 µg/mL (≈ 11 µM)

## O=c1oc2cc(O)ccc2cc1-c1cc(Br)cs1
[9]
  IC50: 0.14 µM

## COC(=O)c1cc(C)cc2sc3cccc(OC)c3c12
Beta-secretase 1
  IC50: 0.6 µM

## COc1cccc(/C=N/NC(=O)c2cccs2)c1O
OVCAR-8
  IC50: 0.82 µM
HL-60
  IC50: 0.82 µM
HCT-116
  IC50: 0.82 µM
SF-295
  IC50: 0.82 µM

## O=C(Nc1ccsc1C(=O)N/N=C/c1ccc(F)cc1)c1ccc(Cl)cc1Cl
SMMC-7721
  IC50: 0.32 µM

## NC(=S)N/N=C(\C=C\c1ccc(Cl)cc1Cl)c1cccs1
Escherichia coli
  inhibition zone (IZ): 15 mm

## CCN[C@H]1C[C@H](C)S(=O)(=O)c2sc(S(N)(=O)=O)cc21 [DORZOLAMIDE]
[10]
  t1/2: 4 months

## O=C(NC[C@H]1CN(c2ccc(N3CCOCC3=O)cc2)C(=O)O1)c1ccc(Cl)s1 [RIVAROXABAN]
[11]
  half-life: 5 h

## CCOC(=O)c1c(/N=C/c2ccc(Br)cc2)sc2c1CCCC2
A549
  GI50: 8.04 µM

## FC(F)(F)c1cccc(-c2cc(-c3cccs3)n(-c3ccc(Br)cc3)n2)c1
Acetylcholinesterase [12]
  IC50: 0.00048 µM

## COc1ccc(C2=NNC(=O)c3c(sc(C(N)=O)c3C)N2)cc1
HepG2
  IC50: 4.37 µg/mL (≈ 13.2 µM)

## CCCCc1ncc(/C=C(\Cc2cccs2)C(=O)O)n1Cc1ccc(C(=O)O)cc1 [EPROSARTAN]
[13]
  half-life: 5 h

## O=C(NNC(=S)Nc1ccccc1[N+](=O)[O-])c1sccc1Cl
Acetylcholinesterase [14]
  IC50: 0.4 µM
Cholinesterase
  IC50: 1.9 µM

## CCCN(CCc1cccs1)[C@H]1CCc2c(O)cccc2C1 [ROTIGOTINE]
[15]
  half-life: 7 h

## CN1CCN(CC(=O)Nc2sc3c(c2C#N)CCC(C(C)(C)C)C3)CC1 (configuration not stated)
MIA PaCa-2
  IC50: 13.4 µM
[16]
  IC50: 0.68 µM

## Clc1ccccc1CN1CCc2sccc2C1 [TICLOPIDINE]
clinical
  half-life: 7.9 h

## COC(=O)[C@H](c1ccccc1Cl)N1CCc2sccc2C1 [CLOPIDOGREL]
[17]
  half-life: 6 h

## CC(=O)c1c(Nc2ccc(C)cc2)sc(-c2nc3ccccc3c(=O)n2-c2ccc(Cl)cc2)c1C
Rattus norvegicus [18]
  Activity: 48.94%
Rattus norvegicus [19]
  Activity: 58.6%

## CN1CCC(=C2c3ccccc3CC(=O)c3sccc32)CC1 [KETOTIFEN]
[20]
  half-life: 3 h

## CCN[C@H]1CN(CCCOC)S(=O)(=O)c2sc(S(N)(=O)=O)cc21 [BRINZOLAMIDE]
[21]
  half-life: 111 h

## NC1=C(C(=O)Nn2c(=O)cc(-c3ccccc3)c3ccc(O)cc32)SCC1
Penicillium chrysogenum
  zone of inhibition at 100 µg/mL: 27 mm
